From ChEMBL document CHEMBL1909046, “DrugMatrix in vitro pharmacology data”

Legend:
[1] = biological target: Protein phosphatase 3 catalytic subunit alpha (Homo sapiens, UniProt Q08209); set-up: species or system Escherichia coli;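 also: inhibition of calcineurin (PP2B) enzyme activity, measured with DiFMUP as the substrate; in other assays of this panel Not Active means under 50% inhibition at 10 µM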
[2] = biological target: Mitogen-activated protein kinase 1 (Homo sapiens, UniProt P28482); test: DRUGMATRIX: Protein Serine/Threonine Kinase, ERK2 enzyme inhibition (substrate: Myelin Basic Protein); set-up: species or system Escherichia coli; details: Not Active = under 50% inhibition at 10 µM
Chain of Mitogen-activated protein kinase 1 (P28482 whole entry): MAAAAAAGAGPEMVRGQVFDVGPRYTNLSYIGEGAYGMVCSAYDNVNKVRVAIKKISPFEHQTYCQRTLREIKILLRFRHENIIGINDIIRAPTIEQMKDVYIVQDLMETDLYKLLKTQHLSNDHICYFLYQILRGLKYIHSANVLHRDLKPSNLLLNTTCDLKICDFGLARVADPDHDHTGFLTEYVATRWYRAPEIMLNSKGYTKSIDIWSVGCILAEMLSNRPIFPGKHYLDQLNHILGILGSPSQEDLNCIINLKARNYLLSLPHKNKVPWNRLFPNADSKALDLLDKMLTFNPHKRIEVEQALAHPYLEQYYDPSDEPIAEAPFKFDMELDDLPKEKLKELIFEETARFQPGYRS

[3] = biological target: T1, D(4) dopamine receptor (Homo sapiens, UniProt P21917); test: DRUGMATRIX: Dopamine D4.2 radioligand binding (ligand: [3H] Spiperone); assay type: cell membranes, CHO-K1, Membrane; details: cho-k1; Not Active = under 50% inhibition at 10 µM
T1 sequence (P21917 whole entry): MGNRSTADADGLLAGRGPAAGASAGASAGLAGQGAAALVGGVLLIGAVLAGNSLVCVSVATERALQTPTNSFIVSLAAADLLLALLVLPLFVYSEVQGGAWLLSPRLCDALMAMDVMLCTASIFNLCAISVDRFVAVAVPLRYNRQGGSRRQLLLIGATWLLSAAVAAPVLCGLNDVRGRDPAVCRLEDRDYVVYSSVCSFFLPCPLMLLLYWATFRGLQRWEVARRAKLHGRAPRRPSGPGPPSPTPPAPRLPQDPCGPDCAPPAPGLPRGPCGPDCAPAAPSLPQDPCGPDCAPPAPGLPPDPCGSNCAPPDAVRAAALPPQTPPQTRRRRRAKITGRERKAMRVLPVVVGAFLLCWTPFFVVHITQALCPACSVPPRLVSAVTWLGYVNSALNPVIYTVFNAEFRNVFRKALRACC

[4] = biological target: T2, Neuropeptide Y receptor type 2 (Homo sapiens, UniProt P49146); assay type: cell membranes, Membrane; details: kan-ts; also: in other assays of this panel Not Active means under 50% inhibition at 10 µM
T2 sequence (P49146 whole entry): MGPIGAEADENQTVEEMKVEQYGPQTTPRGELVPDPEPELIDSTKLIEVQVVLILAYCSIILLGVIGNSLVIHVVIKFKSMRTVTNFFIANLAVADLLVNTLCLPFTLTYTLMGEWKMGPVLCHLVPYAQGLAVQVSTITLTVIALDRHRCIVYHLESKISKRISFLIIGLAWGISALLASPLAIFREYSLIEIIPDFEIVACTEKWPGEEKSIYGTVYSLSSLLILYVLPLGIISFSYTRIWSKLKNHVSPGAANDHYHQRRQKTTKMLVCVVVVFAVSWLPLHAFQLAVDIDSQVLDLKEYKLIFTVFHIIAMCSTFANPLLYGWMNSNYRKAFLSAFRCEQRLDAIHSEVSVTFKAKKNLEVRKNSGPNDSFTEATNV

[5] = biological target: C-C chemokine receptor type 5 (Homo sapiens, UniProt P51681); assay type: cell membranes, Membrane; details: hek293; also: in other assays of this panel Not Active means under 50% inhibition at 10 µM
Chain of C-C chemokine receptor type 5 (P51681 whole entry): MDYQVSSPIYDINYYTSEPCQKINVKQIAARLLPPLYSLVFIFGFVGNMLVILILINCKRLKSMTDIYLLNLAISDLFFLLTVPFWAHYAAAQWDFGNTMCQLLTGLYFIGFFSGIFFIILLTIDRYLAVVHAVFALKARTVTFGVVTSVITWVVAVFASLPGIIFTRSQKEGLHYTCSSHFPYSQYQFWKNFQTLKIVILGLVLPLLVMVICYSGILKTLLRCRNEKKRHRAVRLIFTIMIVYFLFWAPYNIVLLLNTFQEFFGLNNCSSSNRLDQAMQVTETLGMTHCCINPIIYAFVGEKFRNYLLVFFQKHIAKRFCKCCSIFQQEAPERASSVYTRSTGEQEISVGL

[6] = biological target: T3, Caspase-1 (Homo sapiens, UniProt P29466); set-up: species or system Escherichia coli;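 also: Caspase-1 enzyme inhibition assay with a peptide substrate; in other assays of this panel Not Active means under 50% inhibition at 10 µM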
T3 sequence (P29466 whole entry): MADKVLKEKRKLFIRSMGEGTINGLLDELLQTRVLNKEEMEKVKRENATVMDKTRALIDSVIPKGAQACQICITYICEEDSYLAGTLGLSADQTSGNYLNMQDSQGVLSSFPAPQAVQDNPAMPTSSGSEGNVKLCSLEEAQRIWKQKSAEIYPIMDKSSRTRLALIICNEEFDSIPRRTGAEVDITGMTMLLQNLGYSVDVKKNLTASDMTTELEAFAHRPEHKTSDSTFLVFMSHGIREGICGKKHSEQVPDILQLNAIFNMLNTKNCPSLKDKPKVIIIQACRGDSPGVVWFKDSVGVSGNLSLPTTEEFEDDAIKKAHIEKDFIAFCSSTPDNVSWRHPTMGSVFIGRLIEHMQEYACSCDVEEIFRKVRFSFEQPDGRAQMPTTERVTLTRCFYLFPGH

[7] = biological target: Beta-2 adrenergic receptor (Homo sapiens, UniProt P07550); test: DRUGMATRIX: Adrenergic beta2 radioligand binding (ligand: [3H] CGP-12177); assay type: cell membranes, CHO, Membrane; details: cho; Not Active = under 50% inhibition at 10 µM
Chain of Beta-2 adrenergic receptor (P07550 whole entry): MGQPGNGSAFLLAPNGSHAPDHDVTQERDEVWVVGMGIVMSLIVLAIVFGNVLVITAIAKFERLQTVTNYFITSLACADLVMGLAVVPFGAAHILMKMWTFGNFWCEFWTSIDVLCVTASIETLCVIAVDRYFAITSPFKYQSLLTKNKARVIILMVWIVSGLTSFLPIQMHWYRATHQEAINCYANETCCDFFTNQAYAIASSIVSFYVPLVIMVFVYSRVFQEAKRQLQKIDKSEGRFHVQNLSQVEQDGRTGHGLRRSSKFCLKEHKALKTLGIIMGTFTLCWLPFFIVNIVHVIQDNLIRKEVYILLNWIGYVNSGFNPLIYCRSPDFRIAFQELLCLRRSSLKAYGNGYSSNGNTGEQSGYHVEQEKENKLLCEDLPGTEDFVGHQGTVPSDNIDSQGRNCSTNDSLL

[8] = biological target: T4, Neuropeptide Y receptor type 1 (Homo sapiens, UniProt P25929); assay type: cell membranes, Membrane; details: sk-n-mc; also: in other assays of this panel Not Active means under 50% inhibition at 10 µM
T4 sequence (P25929 whole entry): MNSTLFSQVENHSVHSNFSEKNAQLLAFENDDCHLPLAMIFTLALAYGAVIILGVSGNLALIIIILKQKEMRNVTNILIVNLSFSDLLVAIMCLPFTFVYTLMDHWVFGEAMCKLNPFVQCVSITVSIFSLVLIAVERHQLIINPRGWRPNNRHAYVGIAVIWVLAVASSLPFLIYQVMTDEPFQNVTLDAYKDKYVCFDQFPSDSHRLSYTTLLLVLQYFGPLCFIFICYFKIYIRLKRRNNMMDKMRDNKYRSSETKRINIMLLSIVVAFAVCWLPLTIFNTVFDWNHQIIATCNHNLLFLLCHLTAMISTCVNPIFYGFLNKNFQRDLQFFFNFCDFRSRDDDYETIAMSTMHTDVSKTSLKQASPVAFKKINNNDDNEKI

Measured: IC50

OCCOCCN1CCN(C2=Nc3ccccc3Sc3ccccc32)CC1 [QUETIAPINE]
Not Active: all assays above

COC(=O)[C@H]1[C@H]2C[C@@H]3c4[nH]c5cc(OC)ccc5c4CCN3C[C@H]2C[C@@H](OC(=O)c2cc(OC)c(OC)c(OC)c2)[C@@H]1OC [RESERPINE]
Not Active: all assays above

O=C(O)c1ccccc1O [SALICYLIC ACID]
Not Active: all assays above

C[S+]([O-])c1ccc(-c2nc(-c3ccncc3)c(-c3ccc(F)cc3)[nH]2)cc1 (stereo not given) [SB-203580]
not listed: [2]
Not Active: all other assays above

CC1CCC(NC(=O)N(CCCl)N=O)CC1 (stereo not given) [SEMUSTINE]
Not Active: all assays above

O=C1C[C@@H]2OCC=C3CN4CC[C@]56c7ccccc7N1[C@H]5[C@H]2[C@H]3C[C@H]46 [STRYCHNINE]
Not Active: all assays above

C[N+](C)(C)CCOC(=O)CCC(=O)OCC[N+](C)(C)C.[Cl-].[Cl-] [SUCCINYLCHOLINE CHLORIDE]
Not Active: all assays above

Nc1ccc(S(=O)(=O)NC(=O)c2ccccc2)cc1 [SULFABENZAMIDE]
Not Active: all assays above

CCCCCCCCNC(C)C(O)c1ccc(SC(C)C)cc1 (stereo not given) [SULOCTIDIL]
Not Active: all assays above

O=c1[nH]c(=O)n(C2CCCO2)cc1F (stereo not given) [TEGAFUR]
Not Active: all assays above

CC(=N)S [THIOACETAMIDE]
Not Active: all assays above

Cc1ccc(C(=O)c2ccc(CC(=O)O)n2C)cc1 [TOLMETIN]
Not Active: all assays above
